Data published in patent publication US20250228915A1, “DISTINCT CD8+ T CELL PROGRAMMING IN THE TUMOR MICROENVIRONMENT CONTRIBUTES TO SEX BIAS IN CANCER” (Ohio State Innovation Foundation, priority 2022, published 2025).

Columns and labels:
[1] = test system: AR-overexpressing Jurkat cells; details: 100 nM, prolonged stimulation over 9 days (FIG. 14B)
Protocol: Empty vector and androgen receptor-expressing Jurkat cells were seeded into six well plates (Gibco) at 2×10^5 cells per well and treated with 100 nM testosterone (Sigma) or DHT (Millipore), alongside methanol vehicle control (Thermo Fisher). Every three days, cells were counted using the BioRad TC20 automated cell counter, passaged, and re-stimulated with the same androgen concentrations over a time course of 3, 6, and 9 days.

[2] = test system: human Tcf7 promoter in EGFP-C1-AR overexpressing HEK293FT cells; details: AR-transfected HEK293FT, 24 h, 500 ng/mL testosterone or 50 nM DHT; AR dependent (FIG. 7E)
Protocol: WT or mutated human Tcf7 promoter sequence of one kb upstream from its transcriptional start site was cloned into the pMCS-Red Firefly Luciferase vector (Thermo Fisher). Mutants lacked individual (“Mut 1-4”) or all putative AR binding sites. Briefly, 40,000 HEK293FT cells were grown on a 96 well plate at 80% confluence. […] Renilla luciferase gene expression was used to ensure transfection efficiency (Thermo Fisher). Twenty four hours after transfection, cells were treated with 500 ng/ml testosterone or 50 nM DHT for another 24 hours. Cells were then harvested and luciferase activity was analyzed by using Dual-Luciferase Reporter Assay System (Promega).

[3] = test system: MB49 mouse urothelial carcinoma cells; experiment: MB49 tumor growth in WT mice under daily vehicle or enzalutamide; format: in vivo; details: male WT mice, MB49 subcutaneous; enzalutamide 25 mg/kg daily oral gavage from Day 5 vs vehicle (FIG. 5J)
Protocol: MB49 (a gift from C. Voelkel-Johnson from the Medical University of South Carolina) and BKL171 mouse urothelial carcinoma cells were cultured in Dulbecco's modified Eagle's medium with 10% heat-inactivated fetal bovine serum and 1% penicillin/streptomycin. 5×10^5 tumor cells were resuspended in 100 μL ice cold PBS for subcutaneous injection into the right flank of a mouse. For antibody-mediated T cell depletion experiments, mice were injected intraperitoneally with 200 μg of anti-mouse CD4 (Clone GK1.5, BioXCell) and/or CD8 neutralizing antibodies (Clone 53-6.7, BioXCell), followed by 100 μg thereafter on the indicated days. For experiments involving enzalutamide, mice were treated daily with either vehicle control or enzalutamide (25 mg/kg) in 1% carboxymethylcellulose with 0.1% Tween 80 and 2.5% DMSO through oral gavage starting on Day 5 post MB49 subcutaneous injection. Tumor surface area (width×length mm^2) was measured using an electronic caliper starting on Day 4 post implantation.

[4] = test system: CD8+ T cells (Tcf7, Ar transcripts); experiment: qPCR of naïve CD8+ T cells stimulated with testosterone, type I IFN or both; format: cell-based, mouse
Protocol: Mouse spleens and tumors were mechanically disrupted, with the latter additionally subjected to digestion with 1 mg/mL Collagenase D (Roche) for 30 min at 37° C. while shaken at 125 rpm. Excess volume of ice-cold PBS with 2% bovine serum albumin was used to inactivate the enzymatic activity. Red Blood Cell Lysis Buffer (BioLegend) was utilized on tissues before they were passed through 70 µm filters to prepare single cell suspensions. For cytokine production experiments, cells were re-stimulated by 50 ng/mL PMA (Sigma), 1 μg/mL Ionomycin (Sigma) and 1× Brefeldin A (BioLegend) in a 48-well plate for 2 hours at 37° C. For in vitro cultures, purified CD8^+ T cells were left untreated or stimulated with 50 ng/mL testosterone (Sigma) and/or 50 U/mL mouse IFN alpha A (PBL Assay Science). Cells were stained at 4° C. with eFluor506 fixable viability dye for 10 minutes (Invitrogen), followed by extracellular surface markers and FcR block concurrently for 30 minutes. All intracellular staining was performed using the Foxp3 transcription factor staining kit (Invitrogen) according to the manufacturer's instructions. […]
RNA was extracted from FACS/MACS-isolated CD8^+ T cells and reverse-transcribed using RNeasy Micro Kit (Qiagen) and SuperScript™ IV VILO™ Master Mix with ezDNase™ Enzyme (ThermoFisher Scientific), respectively. Quantitative PCR was performed with the following primers: […]

| Structure (SMILES) | proliferation [1] | Tcf7 promoter activity (luciferase) [2] | tumor growth [3] | Ar expression (qPCR) ([4]; female CD8+ T cells, testosterone (FIG. 7D)) | Tcf7 expression (qPCR) ([4]; male CD8+ T cells, acute testosterone exposure, 6 hours (FIG. 7D)) |
| --- | --- | --- | --- | --- | --- |
| C[C@]12CCC(=O)C[C@@H]1CC[C@@H]1[C@@H]2CC[C@]2(C)[C@@H](O)CC[C@@H]12 [DHT, dihydrotestosterone] | decreased proliferation | stimulated | – | – | – |
| CNC(=O)c1ccc(N2C(=S)N(c3ccc(C#N)c(C(F)(F)F)c3)C(=O)C2(C)C)cc1F [enzalutamide] | – | – | partial protection against tumor growth | – | – |
| C[C@]12CC[C@H]3[C@@H](CCC4=CC(=O)CC[C@@]43C)[C@@H]1CC[C@@H]2O [testosterone] | decreased proliferation | stimulated | – | induction of Ar expression | significantly increased |
